We go through 3 compounds from ChEMBL document CHEMBL1955821, “Biotransformations of 6',7'-dihydroxybergamottin and 6',7'-epoxybergamottin by the citrus-pathogenic fungi diminish cytochrome P450 3A4 inhibitory activity” (Bioorg Med Chem Lett, 2012).

The nature of data set [1]: Drug metabolism in Penicillium ulaiense assessed as production of 6,7-furano-5-(6',7'-dihydroxygeranyloxy)-2-hydroxy-hydrocoumaric acid at 23.7 uM after 2 days. The class given is ADME. The note with it: 48 h.
For data set [2], the system named is Geotrichum. Kind of data set: Drug metabolism in Geotrichum citri assessed as 6,7-furano-5-(6',7'-dihydroxygeranyloxy)-2-hydroxy-hydrocoumaric acid level at 78.2 uM after 5 days. Type of data set: ADME, organism-based. The note with it: in vivo, 120 h.
Data set [3] relates to Geotrichum. Kind of data set: Drug metabolism in Geotrichum citri assessed as bergaptol level at 78.2 uM after 5 days. Type of data set: ADME, organism-based. The settings on record: in vivo, 120 h.
Data set [4] is described as follows: Drug metabolism in Penicillium ulaiense assessed as production of 6,7-furano-5-(6',7'-dihydroxygeranyloxy)-2-hydroxy-hydrocoumaric acid at 23.7 uM upto 10 days. The note with it: 240 h. The class given is ADME.
Data set [5] is described as follows: Drug metabolism in Penicillium ulaiense assessed as decrease in 6',7'-dihydroxybergamottin level at 23.7 uM after 4 days. Type of data set: ADME. The settings on record: 96 h.
Data set [6] is described as follows: Drug metabolism in Penicillium ulaiense assessed as compound level at 78.2 uM after 5 days. The class given is ADME. The settings on record: 120 h.
The test system of data set [7] is Geotrichum. Kind of data set: Drug metabolism in Geotrichum citri assessed as production of 6,7-furano-5-(6',7'-dihydroxygeranyloxy)-2-hydroxy-hydrocoumaric acid at 23.7 uM after 2 days. The class given is ADME, organism-based. The settings on record: in vivo, 48 h.
The test system of data set [8] is Geotrichum. Kind of data set: Drug metabolism in Geotrichum citri assessed as compound level at 78.2 uM after 5 days. Type of data set: ADME, organism-based. The settings on record: in vivo, 120 h.
The nature of data set [9]: Drug metabolism in Penicillium ulaiense assessed as bergaptol level at 78.2 uM after 5 days. Type of data set: ADME. The settings on record: 120 h.
Data set [10] in a line: Drug metabolism in Phomopsis citri assessed as bergaptol level at 78.2 uM after 5 days. Type of data set: ADME. The note with it: diaporthe citri, 120 h.
The nature of data set [11]: Drug metabolism in Penicillium ulaiense assessed as production of bergaptol at 23.7 uM up to 10 days. The class given is ADME. The settings on record: 240 h.
The subject of data set [12] is Botrytis cinerea. Kind of data set: Drug metabolism in Botrytis cinerea assessed as compound level at 78.2 uM after 5 days. Type of data set: ADME, organism-based. The note with it: in vivo, 120 h.
Data set [13] can be described thus: Drug metabolism in submerged cultures of Penicillium ulaiense assessed as decrease in compound concentration at 23.7 uM after 8 days. The class given is ADME. The settings on record: 192 h.
The test system of data set [14] is Botrytis cinerea. Kind of data set: Drug metabolism in Botrytis cinerea assessed as 6,7-furano-5-(6',7'-dihydroxygeranyloxy)-2-hydroxy-hydrocoumaric acid level at 78.2 uM after 5 days. The class given is ADME, organism-based. The note with it: in vivo, 120 h.
Data set [15] can be described thus: Drug metabolism in Penicillium ulaiense assessed as 6',7'-dihydroxybergamottin level at 78.2 uM after 5 days. The note with it: 120 h. The class given is ADME.
The test system of data set [16] is Lasiodiplodia theobromae. Kind of data set: Drug metabolism in Lasiodiplodia theobromae assessed as 6,7-furano-5-(6',7'-dihydroxygeranyloxy)-2-hydroxy-hydrocoumaric acid level at 78.2 uM after 5 days. The note with it: in vivo, 120 h. Type of data set: ADME, organism-based.
Data set [17] in a line: Drug metabolism in Phomopsis citri assessed as 6,7-furano-5-(6',7'-dihydroxygeranyloxy)-2-hydroxy-hydrocoumaric acid level at 78.2 uM after 5 days. The class given is ADME. The note with it: diaporthe citri, 120 h.
Data set [18] has as its system Lasiodiplodia theobromae. Kind of data set: Drug metabolism in Lasiodiplodia theobromae assessed as compound level at 78.2 uM after 5 days. The settings on record: in vivo, 120 h. The class given is ADME, organism-based.
The subject of data set [19] is Penicillium digitatum. Kind of data set: Drug metabolism in Penicillium digitatum assessed as 6',7'-dihydroxybergamottin level at 78.2 uM after 5 days. The class given is ADME, organism-based. The note with it: in vivo, 120 h.
Data set [20] deals with Botrytis cinerea. Kind of data set: Drug metabolism in Botrytis cinerea assessed as 6',7'-dihydroxybergamottin level at 78.2 uM after 5 days. Type of data set: ADME, organism-based. The settings on record: in vivo, 120 h.
A short description of data set [21]: Drug metabolism in Phomopsis citri assessed as compound level at 78.2 uM after 5 days. The settings on record: diaporthe citri, 120 h. The class given is ADME.
Data set [22] is described as follows: Drug metabolism in Phomopsis citri assessed as 6',7'-dihydroxybergamottin level at 78.2 uM after 5 days. The note with it: diaporthe citri, 120 h. Type of data set: ADME.
For data set [23], the system named is Penicillium digitatum. Kind of data set: Drug metabolism in Penicillium digitatum assessed as compound level at 78.2 uM after 5 days. The class given is ADME, organism-based. The note with it: in vivo, 120 h.
Data set [24] relates to Lasiodiplodia theobromae. Kind of data set: Drug metabolism in Lasiodiplodia theobromae assessed as 6',7'-dihydroxybergamottin level at 78.2 uM after 5 days. The class given is ADME, organism-based. The note with it: in vivo, 120 h.
Data set [25] deals with Geotrichum. Kind of data set: Drug metabolism in Geotrichum citri assessed as 6',7'-dihydroxybergamottin level at 78.2 uM after 5 days. The settings on record: in vivo, 120 h. The class given is ADME, organism-based.
The test system of data set [26] is Lasiodiplodia theobromae. Kind of data set: Drug metabolism in Lasiodiplodia theobromae assessed as bergaptol level at 78.2 uM after 5 days. Type of data set: ADME, organism-based. The settings on record: in vivo, 120 h.
Data set [27] relates to Penicillium digitatum. Kind of data set: Drug metabolism in Penicillium digitatum assessed as 6,7-furano-5-(6',7'-dihydroxygeranyloxy)-2-hydroxy-hydrocoumaric acid level at 78.2 uM after 5 days. The class given is ADME, organism-based. The settings on record: in vivo, 120 h.
Data set [28] in a line: Drug metabolism in submerged cultures of Penicillium ulaiense assessed as decrease in compound concentration at 23.7 uM after 2 days. Type of data set: ADME. The settings on record: read-out: Drug metabolism.
The nature of data set [29]: Drug metabolism in Penicillium ulaiense assessed as 6,7-furano-5-(6',7'-dihydroxygeranyloxy)-2-hydroxy-hydrocoumaric acid level at 78.2 uM after 5 days. The class given is ADME. The note with it: 120 h.
The target in a further data set is Cytochrome P450 3A4 (Homo sapiens, UniProt P08684). Kind of data set: Inhibition of CYP3A4 after 30 mins by fluorescence assay. The class given is ADME.
Chain of Cytochrome P450 3A4 (P08684 whole entry): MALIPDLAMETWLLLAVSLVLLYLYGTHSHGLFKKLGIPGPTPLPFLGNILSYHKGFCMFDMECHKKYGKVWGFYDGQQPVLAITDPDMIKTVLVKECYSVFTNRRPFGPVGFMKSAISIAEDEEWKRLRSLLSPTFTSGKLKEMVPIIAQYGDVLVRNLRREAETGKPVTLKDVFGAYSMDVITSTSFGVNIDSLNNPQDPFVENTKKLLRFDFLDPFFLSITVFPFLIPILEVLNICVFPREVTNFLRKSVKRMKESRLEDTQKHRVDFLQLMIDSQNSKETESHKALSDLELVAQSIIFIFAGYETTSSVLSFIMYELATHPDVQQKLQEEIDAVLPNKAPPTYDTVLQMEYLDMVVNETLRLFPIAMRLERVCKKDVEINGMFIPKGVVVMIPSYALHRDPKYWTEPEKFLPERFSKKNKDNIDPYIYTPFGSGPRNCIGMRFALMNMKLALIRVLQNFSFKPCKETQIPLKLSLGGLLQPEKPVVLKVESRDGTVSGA

For the compound `C/C(=C\COc1c2ccoc2cc2oc(=O)ccc12)CCC1OC1(C)C` (stereo unspecified) [6',7'-EPOXYBERGAMOTTIN], the Drug metabolism was under 0.5 µM in data set [1]; 24.3 µM in the data set on Geotrichum [2]; 3.9 µM in the data set with Geotrichum [3]; “Active” in data set [4]; “Active” in [5]; 0.7 µM in data set [6]. For the same compound, the Drug metabolism was 7.4 µM in the data set with Geotrichum [7]; 8.2 µM with Geotrichum [8]; 0.3 µM in data set [9]; 0.7 µM in data set [10]; “Active” in data set [11]; 1.3 µM in the data set on Botrytis cinerea [12]. The Drug metabolism entry in data set [13] was “Active”; with Botrytis cinerea [14], 25.1 µM; in data set [15], 0.5 µM; in the data set with Lasiodiplodia theobromae [16] it was 12.6 µM; in data set [17] it was 4.1 µM; with Lasiodiplodia theobromae [18] it was 1.1 µM. In addition, the Drug metabolism in the data set with Penicillium digitatum [19] is 8.3 µM; in the data set with Botrytis cinerea [20] it was 5 µM; in data set [21] it was 1.3 µM; in data set [22], 3.3 µM; in the data set with Penicillium digitatum [23], 0.1 µM; with Lasiodiplodia theobromae [24], 23.9 µM. For the same compound, the Drug metabolism stood at 7.3 µM in the data set with Geotrichum [25], 10.3 µM in the data set on Lasiodiplodia theobromae [26], 32 µM with Penicillium digitatum [27] and 46.6 µM in data set [29]. In addition, in [28], the metabolised at 48 h, 23.7 µM was over 90%.
In turn, `C/C(=C\COc1c(CCC(=O)O)c(O)cc2occc12)CCC(O)C(C)(C)O` (stereo unspecified) yielded an IC50 on Cytochrome P450 3A4 of over 172 µM.
Still for that read-out and setting: in the case of `C/C(=C\COc1c2ccoc2cc2oc(=O)ccc12)CC[C@@H](O)C(C)(C)O` it was 0.81 µM.

As usually defined, the IC50 is the midpoint of a concentration-inhibition curve.
